Laboratory results taken from PubChem BioAssay (NCI).
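Step 1: Grow cells in 96-well plates. Step 2: Expose to compound for 48 hours at 5 concentrations. Step 3: Interpolate endpoints linearly; if unreached, use highest concentration. The concentration for 50% growth inhibition is given as GI50. TGI: total growth inhibition.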

Assays:
Assay in all cases: NCI anticancer screen, dose series, 48 h
CCRF-CEM leukemia = system: CCRF-CEM leukemia
OVCAR-5 ovarian = system: OVCAR-5 ovarian
ACHN renal = system: ACHN renal
SK-OV-3 ovarian = system: SK-OV-3 ovarian
MOLT-4 leukemia = system: MOLT-4 leukemia
OVCAR-4 ovarian = system: OVCAR-4 ovarian
RPMI-8226 leukemia = system: RPMI-8226 leukemia
HCT-116 colon = system: HCT-116 colon
HT29 colon = system: HT29 colon
HCC-2998 colon = system: HCC-2998 colon
HL-60(TB) leukemia = system: HL-60(TB) leukemia

Row | Compound | TGI (CCRF-CEM leukemia) | TGI (OVCAR-5 ovarian) | TGI (ACHN renal) | TGI (SK-OV-3 ovarian) | TGI (MOLT-4 leukemia) | TGI (OVCAR-4 ovarian) | TGI (RPMI-8226 leukemia) | TGI (HCT-116 colon) | TGI (HT29 colon) | TGI (HCC-2998 colon) | TGI (HL-60(TB) leukemia) | GI50 (CCRF-CEM leukemia) | GI50 (OVCAR-5 ovarian) | GI50 (ACHN renal) | GI50 (SK-OV-3 ovarian) | GI50 (MOLT-4 leukemia) | GI50 (HL-60(TB) leukemia) | GI50 (RPMI-8226 leukemia) | GI50 (HT29 colon) | GI50 (HCC-2998 colon)
1 | O=C(O)CC1(CC(=O)O)Nc2ccccc2SC1=O | > 100 µM | > 100 µM | > 100 µM | > 100 µM | > 100 µM | > 100 µM | > 100 µM | > 100 µM | > 100 µM | > 100 µM |  |  |  |  |  |  |  |  |  | 
2 | CC(CCC(=O)O)C1CCC2C3C(O)CC4CC(O)CCC4(C)C3CC(O)C12C (stereo unspecified) | > 100 µM | > 100 µM | > 100 µM | > 100 µM | > 100 µM | > 100 µM | > 100 µM | > 100 µM | > 100 µM | > 100 µM | > 100 µM |  |  |  |  |  |  |  |  | 
3 | C[C@]12CCc3sc(Nc4ccc(O)cc4)nc3C1=CC[C@@H]1[C@@H]2CC[C@]2(C)C(=O)CC[C@@H]12 | > 100 µM | > 100 µM | 9.29 µM | > 100 µM | > 100 µM |  | 7.07 µM |  | 5.59 µM | > 100 µM | 7.27 µM | 2.47 µM | 3.91 µM | 2.92 µM | 12.3 µM | 2.38 µM | 2.57 µM | 2.35 µM | 2.13 µM | 4.11 µM
4 | CN1CCN(c2cc(-c3cc4ccccc4o3)oc(=O)c2C#N)CC1 | > 100 µM | > 100 µM | > 100 µM |  | > 100 µM | > 100 µM | > 100 µM | > 100 µM | > 100 µM | > 100 µM | > 100 µM |  |  |  |  |  |  |  |  | 
5 | O=C(NN1C(=O)CSC1c1ccc(C(F)(F)F)cc1)c1ccncc1 (stereo unspecified) | > 100 µM | > 100 µM |  | > 100 µM | > 100 µM | > 100 µM | > 100 µM | > 100 µM | > 100 µM | > 100 µM | > 100 µM |  |  |  |  |  |  |  |  | 
6 | CCSc1nc(=[N+]2CCCC2)ss1 | 13.2 µM | > 100 µM | > 100 µM | > 100 µM | 30 µM | > 100 µM | 22.8 µM | > 86.9 µM | > 92.1 µM | > 100 µM | 26.6 µM |  |  |  |  |  |  |  |  | 
7 | COc1ccc(-c2c3c(nc4nc(SC)nc(SC)c24)CCCC3)cc1OC | 90.2 µM | > 100 µM | > 100 µM | > 100 µM | > 100 µM |  | > 100 µM | > 100 µM | > 100 µM | > 100 µM | 51.4 µM |  |  |  |  |  |  |  |  | 
8 | CCc1nnc(-c2nsc3ccccc23)s1 | > 100 µM | > 100 µM | > 100 µM |  | > 100 µM | > 100 µM | > 100 µM | > 100 µM | > 100 µM | > 100 µM | > 100 µM |  |  |  |  |  |  |  |  | 
9 | Cc1ccc(Nc2nc(NS(=O)(=O)c3cc(C(=O)Nc4ccc(Cl)cc4)c(Cl)cc3S)n[nH]2)cc1 | > 100 µM | > 100 µM | > 100 µM | > 100 µM | > 100 µM | > 100 µM | > 100 µM | > 100 µM | > 100 µM |  | > 100 µM |  |  |  |  |  |  |  |  | 
10 | O=C1OCC/C1=C/c1ccc(N=Nc2c(O)ccc3ccccc23)cc1 | 53.5 µM | 42.2 µM | 31.8 µM | 55.3 µM | 51.1 µM | 37.4 µM | 53.8 µM | 34.6 µM | 35 µM | 39.7 µM | 57.1 µM |  |  |  |  |  |  |  |  | 
11 | COc1cc2c(cc1OC)C(C)N(C)c1c-2c(OC(C)=O)cc2cc(OC)c(OC)cc12 (stereo unspecified) | > 100 µM | > 100 µM | 97 µM | > 100 µM | > 100 µM | > 45.4 µM | > 59 µM | 35.2 µM | > 58.9 µM | > 60.1 µM |  |  |  |  |  |  |  |  |  | 
12 | CCOP(=O)(CN=C(c1ccccc1)c1ccccc1)OCC | > 100 µM | > 100 µM | > 100 µM | > 100 µM | > 100 µM | > 100 µM | > 100 µM | > 100 µM | > 100 µM | > 100 µM | > 100 µM |  |  |  |  |  |  |  |  | 
13 | NC(=S)N/N=C1\c2ccccc2CCC1CCC1(O)CCc2ccccc2C1=O (stereo unspecified) | 86 µM | 74.2 µM | > 100 µM | > 100 µM | 88.2 µM | > 100 µM | 70.4 µM | 40.2 µM | 45.9 µM |  | 20.6 µM |  |  |  |  |  |  |  |  | 
14 | CC1OC1C(=O)C1(O)C(C)C(O)C23OC2(C(O)c2c(O)cccc2C3=O)C1O (stereo unspecified) |  | 3.08 µM |  | 0.532 µM | 0.495 µM | 0.0982 µM | 0.73 µM | 0.703 µM | 0.629 µM | 0.401 µM | 0.383 µM |  |  |  |  |  |  |  |  | 
